Source: BindingDB's records for doi:10.1021/jm00100a005 (Eli Lilly, 1992)
pIC50: −log10 of the molar value.

Target: Muscarinic acetylcholine receptor M1 (Oryctolagus cuniculus)
Assay: Efficacy at muscarinic acetylcholine receptor M1 measured by the ability to inhibit the electrically stimulated twitch of the rabbit vas deferens

How did the pIC50 turn out when `CCCCCCSc1nsnc1C1=CCCN(C)C1` [5-(4-Hexylsulfanyl-[1,2,5]thiadiazol-3-yl)-1-methyl-1,2,3,6-tetrahydro-pyridine; oxalic acid] was run?
The pIC50 was 12.00.
